In patent publication US20240425524A1, “SPIROTRICYCLE RIPK1 INHIBITORS AND METHODS OF USES THEREOF” (Merck Sharp & Dohme LLC, priority 2021, published 2024) one finds EC50 data, which are given here for 29 compounds.

Sequence of RIPK1 (Q13546 1-327): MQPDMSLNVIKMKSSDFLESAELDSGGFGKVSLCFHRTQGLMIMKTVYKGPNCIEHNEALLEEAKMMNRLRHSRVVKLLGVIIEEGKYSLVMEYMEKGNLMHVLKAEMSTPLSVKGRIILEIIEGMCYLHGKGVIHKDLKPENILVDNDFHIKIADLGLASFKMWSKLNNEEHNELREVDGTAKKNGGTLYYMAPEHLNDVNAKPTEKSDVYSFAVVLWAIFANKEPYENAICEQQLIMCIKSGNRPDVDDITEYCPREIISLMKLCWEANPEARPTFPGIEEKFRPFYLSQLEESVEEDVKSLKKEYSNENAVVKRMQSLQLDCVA

This assay concerns the target RIPK1 (Homo sapiens (Human), UniProt Q13546). Description: RIPK1-ADP-Glo Enzymatic Assay. In kind it is biochemical. The conditions noted are these: recombinant GST-RIPK1 kinase domain (residues 1-327), 25 nM, ten-point titration, 30 minutes pre-incubation. The procedure, abridged:
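GST-RIPK1 kinase domain (residues 1-327, Sf21-expressed; 25 nM final) was pre-incubated 30 min at ambient temperature with compound (10-point 1:3 series from 100000 nM, 1% DMSO) in HEPES pH 7.3 buffer with 20 mM MgCl2. The reaction was started with 900 μM ATP (addition solution) and 3 μM dephosphorylated MBP and ran 150 min. Read-out was ADP-Glo luminescence, with EC50 from a four-parameter fit.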
`CN(C)C(=O)c1ccnc(N2CCC3(CC2)CN2CC[C@@H](c4cc(F)cc(F)c4)N2C3=O)n1` [Example 1.88, (S)-2-(7′-(3,5-difluorophenyl)-1′-oxodihydro-1′H,3′H,5′H-spiro[piperidine-4,2′-pyrazolo[1,2-a]pyrazol]-1-yl)-N,N-dimethylpyrimidine-4-carboxamide]: the concentration giving a half-maximal response (EC50) is 111 nM. With `O=C1N2[C@H](c3cc(F)cc(F)c3)CCN2CC12CCN(c1cc(F)ccn1)CC2` [Example 1.3, (7′S)-7′-(3,5-difluorophenyl)-1-(4-fluoropyridin-2-yl)dihydro-1′H,3′H,5′H-spiro[piperidine-4,2′-pyrazolo[1,2-a]pyrazol]-1′-one] the figure was 19 nM; with `O=C1N2[C@H](c3cc(F)cc(F)c3)CCN2CC12CCN(c1cnccn1)CC2` [Example 1.41, (S)-7′-(3,5-difluorophenyl)-1-(pyrazin-2-yl)dihydro-1′H,3′H,5′H-spiro[piperidine-4,2′-pyrazolo[1,2-a]pyrazol]-1′-one], 308 nM; with `O=C1N2[C@H](c3cc(F)cc(F)c3)CCN2CC12CCN(c1ccc(Cl)c3ccnn13)CC2` [Example 8.1, (S)-1-(4-chloropyrazolo[1,5-α]pyridin-7-yl)-7′-(3,5-difluorophenyl) dihydro-1′H,3′H,5′H-spiro [piperidine-4,2′-pyrazolo[1,2-α]pyrazol]-1′-one], 7 nM. Turning to `Cc1cnc(N2CCC3(CC2)CN2CC[C@@H](c4cc(F)cc(F)c4)N2C3=O)nc1` [Example 1.6, (7′S)-7′-(3,5-difluorophenyl)-1-(5-methylpyrimidin-2-yl)dihydro-1′H,3′H,5′H-spiro[piperidine-4,2′-pyrazolo[1,2-a]pyrazol]-1′-one], the concentration giving a half-maximal response (EC50) is 393 nM.

For `N#Cc1cnc(N2CCC3(CC2)CN2CC[C@@H](c4cc(F)cc(F)c4)N2C3=O)nc1` [Example 1.76, (S)-2-(7′-(3,5-difluorophenyl)-1′-oxodihydro-1′H,3′H,5′H-spiro[piperidine-4,2′-pyrazolo[1,2-a]pyrazol]-1-yl)pyrimidine-5-carbonitrile], the EC50 was found to be 35 nM. `CC(C)c1nccc(N2CCC3(CC2)CN2CC[C@@H](c4cc(F)cc(F)c4)N2C3=O)n1` [Example 1.49, (S)-7′-(3,5-difluorophenyl)-1-(2-isopropylpyrimidin-4-yl)dihydro-1′H,3′H,5′H-spiro[piperidine-4,2′-pyrazolo[1,2-a]pyrazol]-1′-one]: the concentration giving a half-maximal response (EC50) turned out to be 295 nM. With `O=C1N2[C@H](c3cc(F)cc(F)c3)CCN2CC12CCN(S(=O)(=O)c1ccccc1)CC2` [Example 5.3, (S)-7′-(3,5-difluorophenyl)-1-(phenylsulfonyl) dihydro-l′H,3′H,5′H-spiro[piperidine-4,2′-pyrazolo[1,2-a]pyrazol]-l′-one] the figure was 830 nM; with `O=C1N2[C@H](c3cc(F)cc(F)c3)CCN2CC12CCN(c1ncc(F)cc1C(F)F)CC2` [Example 2.9, (S)-1-(3-(difluoromethyl)-5-fluoropyridin-2-y1)-7′-(3,5-difluorophenyl)dihydro-l′H,3′H,5′H-spiro[piperidine-4,2′-pyrazolo[1,2-a]pyrazol]-1′-one], 792 nM. To `N#Cc1cccc(N2CCC3(CC2)CN2CC[C@@H](c4cc(F)cc(F)c4)N2C3=O)n1` [Example 1.58, (S)-6-(7′-(3,5-difluorophenyl)-1′-oxodihydro-1′H,3′H,5′H-spiro[piperidine-4,2′-pyrazolo[1,2-a]pyrazol]-1-yl)picolinonitrile] belongs 34 nM; to `O=C1N2[C@H](c3cc(F)cc(F)c3)CCN2CC12CCN(c1ncnc3scnc13)CC2` [Example 3.1], 24 nM.

With `O=C1N2[C@H](c3cc(F)cc(F)c3)CCN2CC12CCN(c1cc(O)ncn1)CC2` [Example 1.2, (7′S)-7′-(3,5-difluorophenyl)-1-(6-hydroxypyrimidin-4-yl)dihydro-1′H,3′H,5′H-spiro[piperidine-4,2′-pyrazolo[1,2-a]pyrazol]-1′-one], the half-maximal effective concentration (EC50) amounted to 151 nM. With `Cc1cc(F)c(C(=O)N2CCC3(CC2)CN2CC[C@@H](c4cc(F)cc(F)c4)N2C3=O)cc1F` [Example 4.26, (S)-1-(2,5-difluoro-4-methylbenzoyl)-7′-(3,5-difluorophenyl) dihydro-1′H,3′H,5′H-spiro[piperidine-4,2′-pyrazolo[1,2-a]pyrazol]-l′-one] the figure was 23 nM.

Consider `Cc1ccc(F)cc1C(=O)N1CCC2(CC1)CN1CC[C@@H](c3cc(F)cc(F)c3)N1C2=O` [Example 4.13, (S)-7′-(3,5-difluorophenyl)-1-(5-fluoro-2-methylbenzoyl) dihydro-1′H,3′H,5′H-spiro[piperidine-4,2′-pyrazolo[1,2-a]pyrazol]-l′-one], for which the EC50 is 335 nM. To `O=C1N2[C@H](c3cc(F)cc(F)c3)CCN2CC12CCN(c1cc(-n3ccnc3)ncn1)CC2` [Example 1.18, (S)-1-(6-(1H-imidazol-1-yl)pyrimidin-4-yl)-7′-(3,5-difluorophenyl)dihydro-1′H,3′H,5′H-spiro[piperidine-4,2′-pyrazolo[1,2-a]pyrazol]-1′-one] belongs 27 nM. As to `Cc1nc(N2CCC3(CC2)CN2CC[C@@H](c4cc(F)cc(F)c4)N2C3=O)ccc1Cl` [Example 11.1, (S)-1-(5-chloro-6-methylpyridin-2-yl)-7′-(3,5-difluorophenyl) dihydro-1′H,3′H,5′H-spiro [piperidine-4,2′-pyrazolo[1,2-α]pyrazol]-1′-one], the EC50 turned out to be 23 nM. To `O=C1N2[C@H](c3cc(F)cc(F)c3)CCN2CC12CCN(c1cncc(F)c1)CC2` [Example 10.2, (S)-7′-(3,5-difluorophenyl)-1-(5-fluoropyridin-3-yl)dihydro-1′H,3′H,5′H-spiro[piperidine-4,2′-pyrazolo[1,2-a]pyrazol]-l′-one] belongs 338 nM; to `O=C1N2[C@H](c3cc(F)cc(F)c3)CCN2CC12CCN(c1cccc(Cl)n1)CC2` [Example 1.5, (7′S)-1-(6-chloropyridin-2-yl)-7′-(3,5-difluorophenyl)dihydro-1′H,3′H,5′H-spiro[piperidine-4,2′-pyrazolo[1,2-a]pyrazol]-1′-one], 24 nM; to `O=C(c1cc(F)cc(Cl)c1)N1CCC2(CC1)CN1CC[C@@H](c3cc(F)cc(F)c3)N1C2=O` [Example 4.19, (S)-1-(3-chloro-5-fluorobenzoyl)-7′-(3,5-difluorophenyl) dihydro-1′H,3′H,5′H-spiro[piperidine-4,2′-pyrazolo[1,2-a]pyrazol]-l′-one], 18 nM. `N#Cc1nccc(N2CCC3(CC2)CN2CC[C@@H](c4cc(F)cc(F)c4)N2C3=O)n1` [Example 1.78, (S)-4-(7′-(3,5-difluorophenyl)-1′-oxodihydro-1′H,3′H,5′H-spiro[piperidine-4,2′-pyrazolo[1,2-a]pyrazol]-1-yl)pyrimidine-2-carbonitrile]: the half-maximal effective concentration (EC50) is 73 nM.

With `O=C(c1ccccc1)N1CCC2(CC1)CN1CC[C@@H](c3cc(F)cc(F)c3)N1C2=O` [Example 5.1], the EC50 is 13 nM.

On to `CSc1ncc(C)c(N2CCC3(CC2)CN2CC[C@@H](c4cc(F)cc(F)c4)N2C3=O)n1` [Example 1.66, (S)-7′-(3,5-difluorophenyl)-1-(5-methyl-2-(methylthio)pyrimidin-4-yl)dihydro-1′H,3′H,5′H-spiro[piperidine-4,2′-pyrazolo[1,2-a]pyrazol]-1′-one], for which the EC50 turned out to be 673 nM. To `O=C(c1c(F)ccc(F)c1F)N1CCC2(CC1)CN1CC[C@@H](c3cc(F)cc(F)c3)N1C2=O` [Example 4.9, (S)-7′-(3,5-difluorophenyl)-1-(2,3,6-trifluorobenzoyl) dihydro-1′H,3′H,5′H-spiro[piperidine-4,2′-pyrazolo[1,2-a]pyrazol]-l′-one] belongs 31 nM; to `O=C1N2[C@H](c3cc(F)cc(F)c3)CCN2CC12CCN(c1cccc(-n3nccc3C(F)(F)F)n1)CC2` [Example 2.12, (S)-7′-(3,5-difluorophenyl)-1-(6-(5-(trifluoromethyl)-1H-pyrazol-1-y1)pyridin-2-yl)dihydro-l′H,3′H,5′H-spiro[piperidine-4,2′-pyrazolo[1,2-a]pyrazol]-1′-one], 6 nM; to `O=C(c1cccnc1)N1CCC2(CC1)CN1CC[C@@H](c3cc(F)cc(F)c3)N1C2=O` [Example 4.4, (S)-7′-(3,5-difluorophenyl)-1-nicotinoyldihydro-1′H,3′H,5′H-spiro[piperidine-4,2′-pyrazolo[1,2-a]pyrazol]-l′-one], 209 nM. On to `O=C1N2[C@H](c3cc(F)cc(F)c3)CCN2CC12CCN(c1ncc(C3CC3)cn1)CC2` [Example 1.56, (S)-1-(5-cyclopropylpyrimidin-2-yl)-7′-(3,5-difluorophenyl)dihydro-1′H,3′H,5′H-spiro[piperidine-4,2′-pyrazolo[1,2-a]pyrazol]-1′-one], for which the concentration for a half-maximal effect (EC50) came out at 321 nM. To `O=C1N2[C@H](c3cc(F)cc(F)c3)CCN2CC12CCN(c1ncnc3ccsc13)CC2` [Example 1.13, (S)-7′-(3,5-difluorophenyl)-1-(thieno[3,2-d]pyrimidin-4-yl)dihydro-1′H,3′H,5′H-spiro[piperidine-4,2′-pyrazolo[1,2-a]pyrazol]-1′-one] belongs 16 nM; to `O=C1N2[C@H](c3cc(F)cc(F)c3)CCN2CC12CCN(c1ncc(OC(F)F)cn1)CC2` [Example 1.25, (S)-1-(5-(difluoromethoxy)pyrimidin-2-yl)-7′-(3,5-difluorophenyl)dihydro-1′H,3′H,5′H-spiro[piperidine-4,2′-pyrazolo[1,2-a]pyrazol]-1′-one], 38 nM. To `N#Cc1cnc(N2CCC3(CC2)CN2CC[C@@H](c4cc(F)cc(F)c4)N2C3=O)cn1` [Example 2.19, (S)-5-(7′-(3,5-difluorophenyl)-1′-oxodihydro-l′H,3′H,5′H-spiro[piperidine-4,2′-pyrazolo[1,2-a]pyrazol]-1-y1)pyrazine-2-carbonitrile] belongs 27 nM.
